Data published in patent US10213451B2, “Methods and compounds for modulating the secretion or expression of adhesion proteins or angiopoietins of cells” (PACIFIC ARROW LIMITED, priority 2004, dated 2019).
Where “and” joins values, the source holds several entries; their conditions need not be identical. Identical values can stand only once.

Legend:
[1] = system: phosphatase, protein expression in ES2 cells; test: Microarray gene expression, Table 19; type: cell-based, human
Description: Y/D is the ratio (in folds) of gene expression in cells treated with compound Y as compared with those of the no drug control (D),
YM/D is the ratio of gene expression in cells treated with compound YM (ACH-Y, Y without sugar moiety) compared with those of the no drug control (D)
Cell culture and drug-treatment.: ES2 cells were seeded in a T-25 flask with 4.5 million cells per flask for 24 hours. Cell culture was replaced with fresh medium with xanifolia-Y (Y) or DMSO no drug control (D) for 24 hours. Cells were then harvested for RNA isolation. Three experiments were done.
RNA extraction, labeling, hybridization, and data analysis. RNA was extracted from tumor cells using the Qiagen RNeasy Kit. RNA quality and quantity was checked by the Agilent BioAnalyzer and the NanoDrop® ND-1000 spectrophotometer respectively before further manipulation. The first and second cDNA strands were synthesized from 20 ng of total RNA using the Affymetrix T7 oligo(dT) primer protocol and kit for the two-cycle amplification. To produce amplified biotin-labeled-cRNA, the cDNA was […] by in vitro transcription using the MegaScript kit from Ambion. 15.0 μg of the labeled cRNA was fragmented and re-checked for concentration using the NanoDrop® ND-1000 spectrophotometer. A hybridization cocktail containing Affymetrix spike-in controls and fragmented labeled cRNA was loaded onto the Human U133 Plus 2.0 GeneChip® oligonucleotide array. The Affymetrix array (Affymetrix, Inc. Santa Clara, Calif.) is comprised of over 1,300,000 unique oligonucleotide features that represent greater than 38,500 well-substantiated human genes. The array was hybridized for 16 hours at 45° C. with rotation at 60 rpm then washed and stained with a strepavidin, R-phycoerythrin conjugate stain on the Affymetrix Fluidicis Station 450. Signal amplification was done using biotinylated antistreptavidin. The arrays were scanned using the GeneChip® 3000 confocal laser scanner with autoloader. The images were analyzed and quality control metrics recorded using Affymetrix GCOS software version 1.4. Lastly, the expression value for each gene was calculated using dChip PM-only model based or Plier algorithm.
Pairwise comparisons were made as follows: Treated vs. Control (Y vs. D), Modified Drug vs Control (YM/ACY-H vs. D) and Treated vs. Modified Drug (Y vs. YM/ACH-Y) Cel files analyzed using the Bioconductor package of R Statistical programming. Limma analysis generated a reasonable number of changing genes between the samples.
The raw data in the .CEL files were normalized by the GCRMA method (robust multi-array analysis). It is implemented in Bioconductor (http://www.bioconductor.org/). The raw signal intensity data were normalized, background corrected and summarized based on certain statistical models, and an expression value, in log 2-scale, is obtained per chip per probe set. Then the null hypothesis was tested that there's no significant changes in gene expression between the treatment pairs. This was done by LIMMA and is also implemented in Bioconductor. It uses empirical Bayes method to estimate the variance in gene expression. One comparison was made, namely, High Grade vs. Low Grade. The raw p-values were adjusted by the Benjamnin-Hochberg method for false discovery rate (FDR) control. All data sets contained a significant number of genes with a p-value less than 0.05, which is that the probability that a gene is NOT differential expressed (false positive) is 1:20.

[2] = system: Fibronectin secretion from ES2 cells; test: Fibronectin secretion (Western blot), ES2 cells; type: cell-based, human
[3] = ES2 cells, 10 ug/ml, listed as xanifolia-Y

SMILES	PPP1R15A protein phosphatase 1, regulatory (inhibitor) subunit 15A, gene expression ratio to no drug control (D) ([1]; probe 37028_at)	PPP1R15A protein phosphatase 1, regulatory (inhibitor) subunit 15A, gene expression ratio to no drug control (D) ([1]; probe 202014_at)	DUSP10 dual specificity phosphatase 10, gene expression ratio to no drug control (D) ([1]; probe 215501_s_at)	DUSP10 dual specificity phosphatase 10, gene expression ratio to no drug control (D) ([1]; probe 221563_at)	secretion of Fibronectin to medium over time ([2]; ES2 cells, 10 ug/ml, 1 to 24 hour)	reduction of Fibronectin secretion ([2]; ES2 cells, 10 ug/ml, 18 hours)	reduction of Fibronectin secretion ([2]; ES2 cells, 10 ug/ml, 24 hours, listed as Y)	reduction of Fibronectin secretion ([2]; ES2 cells, 10 ug/ml, 24 hours, listed as xanifolia-Y)	reduction of FN secretion at 24 hours after removal of drug ([2]; ES2 cells, 10 ug/ml, drug removed at 4 or 8 hours)	Fibronectin secreted / FN band intensity, % of DMSO control ([2]; ES2 cells, 10 ug/ml, listed as Y)	% inhibition of Fibronectin secretion ([2]; ES2 cells, 10 ug/ml, listed as Y3)	% inhibition of Fibronectin secretion [2, 3]	Fibronectin secreted / FN band intensity, % of DMSO control [2, 3]	earliest time at which inhibition of Fibronectin was observed ([2]; ES2 cells, after drug-treatment)	change in Fibronectin secretion ([2]; ES2 cells, first 7 hours of treatment)	% inhibition of Fibronectin secretion ([2]; ES2 cells, 10 ug/ml)	Fibronectin secreted / FN band intensity, % of DMSO control ([2]; ES2 cells, 20 ug/ml)	inhibition at 20 µg/mL ([2]; Homo sapiens, ES-2, ES2 cells, 20 ug/ml)
C/C=C(/C)C(=O)O[C@H]1[C@H](OC(=O)/C(C)=C\C)[C@@]2(CO)C(CC1(C)C)C1=CCC3[C@@]4(C)CC[C@H](O[C@@H]5OC(C(=O)O)[C@@H](O)C(O[C@@H]6O[C@@H](CO)C(O)C6O)C5O[C@@H]5OC(CO)[C@H](O)C(O)C5O)C(C)(C)C4CC[C@@]3(C)[C@]1(C)[C@@H](O)[C@H]2O (stereo partly drawn) [Xanifolia-Y, 3-O-[β-D-galactopyranosyl (1→2)]-α-L-arabinofuranosy (1→3)-β-D-glucuronopyranosyl-21,22-O-diangeloyl-3β, 15α, 16α, 21β, 22α, 28-hexahydroxyolean-12-ene]	2.4 folds	2.6 folds	3.2 folds	3.8 folds	no or only minimally secretion of Fibronectin	40%	31% and 30-40% and 38% and 46%	46%	over 50%	62% and 51% and 54%	47%	49%	54%	8 h	not noticeable			
C/C=C(/C)C(=O)O[C@H]1[C@H](OC(=O)/C(C)=C\C)[C@@]2(CO)C(CC1(C)C)C1=CCC3[C@@]4(C)CC[C@H](O)C(C)(C)C4CC[C@@]3(C)[C@]1(C)[C@@H](O)[C@H]2O (stereo partly shown) [ACH-Y]	5.6 folds	6.2 folds	7.1 folds	5.7 folds												less (or not observed)	53%-75%	48%
